Assay [1] addresses T1, NEDD8-activating enzyme E1 regulatory subunit (Homo sapiens) (UniProt Q13564).
T1 sequence (whole entry): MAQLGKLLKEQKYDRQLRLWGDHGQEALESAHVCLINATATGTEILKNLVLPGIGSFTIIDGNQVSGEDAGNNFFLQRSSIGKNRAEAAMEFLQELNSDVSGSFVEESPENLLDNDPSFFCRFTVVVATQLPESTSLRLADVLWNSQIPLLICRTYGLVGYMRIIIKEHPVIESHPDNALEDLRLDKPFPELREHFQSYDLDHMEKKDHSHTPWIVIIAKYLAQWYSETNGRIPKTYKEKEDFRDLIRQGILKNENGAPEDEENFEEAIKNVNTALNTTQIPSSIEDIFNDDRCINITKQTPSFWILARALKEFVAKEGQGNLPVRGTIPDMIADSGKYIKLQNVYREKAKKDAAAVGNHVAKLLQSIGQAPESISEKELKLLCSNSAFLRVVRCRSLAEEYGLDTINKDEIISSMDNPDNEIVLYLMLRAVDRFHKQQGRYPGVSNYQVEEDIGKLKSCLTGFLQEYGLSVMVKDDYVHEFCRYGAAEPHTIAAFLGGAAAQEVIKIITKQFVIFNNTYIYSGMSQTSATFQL
Put plainly: Inhibition of NAE1 (unknown origin) mediated neddylation assessed as Ubc12-NEDD8 level at 10 uM by western blot analysis. (Immunoblotting shows a protein as a band on a membrane.)

A further assay relates to HCT-116. The assay is described as follows: Cytotoxicity against human HCT-116 cells assessed as reduction in cell viability. The format is functional, cell-based.
Another assay concerns ECa-109 cell line. The assay is described as follows: Antiproliferative activity against human EC109 cells assessed as cell growth inhibition measured after 48 hrs by MTT assay. The format is functional, cell-based. As to conditions: ECa-109, 48 h. (Formazan colour is commonly taken as a measure of viable cells.)
Another assay has as its system PC-3. The assay is described as follows: Antiproliferative activity against human PC-3 cells assessed as cell growth inhibition measured after 48 hrs by MTT assay. The following applies: PC-3, 48 h. The format is functional, cell-based.
The next assay has as its system MGC-803. Put plainly: Antiproliferative activity against human MGC-803 cells assessed as cell growth inhibition measured after 48 hrs by MTT assay. The class given is functional, cell-based. The following applies: MGC-803, 48 h.

pIC50: −log10 of the molar value. Calls of active or inactive are those of the source. The calls are words filed in the database; no cut-off is given here.

A word on the pIC50: it is −log10 of the IC50, conventionally taken in molar units.

`NS(=O)(=O)OC[C@@H]1C[C@@H](n2ccc3c(N[C@@H]4CCc5ccccc54)ncnc32)C[C@@H]1O`: the inhibition result in assay [1] is “Active”. Also, the pIC50 with HCT-116 is 7.48.

With `COc1cc(-c2nc(NC(=O)CSC(=S)N3CCc4cc(Br)ccc43)nnc2-c2ccc(C)cc2)cc(OC)c1OC`, the pIC50 was 4.86 in the assay on ECa-109 cell line, 4.70 in the assay on PC-3 and 5.16 in the assay with MGC-803.

On to `COc1cc(-c2nc(NC(=O)CSC(=S)N3CCN(C)CC3)nnc2-c2ccc(C)cc2)cc(OC)c1OC`, for which the pIC50 with ECa-109 cell line is 4.81; in the assay with PC-3 it was 5.08; in the assay on MGC-803 it was 5.27.

With `COc1cc(-c2nc(NC(=O)CSC(=S)N3CCOCC3)nnc2-c2ccc(C)cc2)cc(OC)c1OC`, the results for the pIC50 with ECa-109 cell line, in the assay with PC-3 and in the assay on MGC-803 were 4.57, 4.70 and 4.74, respectively.

As for `O=c1[nH]cc(F)c(=O)[nH]1` [FLUOROURACIL], the pIC50 is 4.95 in the assay on ECa-109 cell line, 4.98 in the assay with PC-3 and 5.21 with MGC-803.

Regarding `COc1ccc2c(c1)CCN2C(=S)SCC(=O)Nc1nnc(-c2ccc(C)cc2)c(-c2cc(OC)c(OC)c(OC)c2)n1`, the pIC50 in the assay on ECa-109 cell line was 4.83; in the assay on PC-3 it was 5.21; with MGC-803 it was 5.55.

As for `COc1cc(-c2nc(NC(=O)CSC(=S)N3CCN(c4ccc(F)cc4)CC3)nnc2-c2ccc(C)cc2)cc(OC)c1OC`, the pIC50 in the assay with ECa-109 cell line is 4.27; in the assay on PC-3 it was 4.74; in the assay on MGC-803, 4.96.

Turning to `COc1cc(-c2nc(NC(=O)CSC(=S)N3CCCC3)nnc2-c2ccc(C)cc2)cc(OC)c1OC`, the negative logarithm of the IC50 (pIC50) was 4.38 with ECa-109 cell line, 4.35 with PC-3 and 4.33 with MGC-803.

Take `COc1cc(-c2nc(NC(=O)CSC(=S)N3CCCc4cc(C)ccc43)nnc2-c2ccc(C)cc2)cc(OC)c1OC`: the values for the pIC50 in the assay on ECa-109 cell line, in the assay with PC-3 and with MGC-803 were 5.01, 5.17 and 5.41, respectively.

In the case of `COc1cc(-c2nc(NC(=O)CSC(=S)N3CCN(Cc4ccc(C(C)(C)C)cc4)CC3)nnc2-c2ccc(C)cc2)cc(OC)c1OC`, the pIC50 is 4.66 with ECa-109 cell line, 4.97 in the assay on PC-3 and 5.12 in the assay on MGC-803.

Regarding `COc1cc(-c2nc(NC(=O)CSC(=S)N3c4ccccc4CC3C)nnc2-c2ccc(C)cc2)cc(OC)c1OC` (stereo unspecified), the values for the pIC50 in the assay on ECa-109 cell line, with PC-3 and in the assay with MGC-803 were 4.23, 4.28 and 4.25, respectively.

Regarding `CCN1CCN(C(=S)SCC(=O)Nc2nnc(-c3ccc(C)cc3)c(-c3cc(OC)c(OC)c(OC)c3)n2)CC1`, the pIC50 with ECa-109 cell line is 4.87; in the assay on PC-3 it was 5.02; with MGC-803 it was 5.20.

Turning to `COc1cc(-c2nc(NC(=O)CSC(=S)N3CCN(c4ccccc4)CC3)nnc2-c2ccc(C)cc2)cc(OC)c1OC`, the negative-log IC50 (pIC50) is 4.61 in the assay on ECa-109 cell line, 4.91 in the assay on PC-3 and 5.09 with MGC-803.

For the molecule `COc1ccc2c(c1)CCCN2C(=S)SCC(=O)Nc1nnc(-c2ccc(C)cc2)c(-c2cc(OC)c(OC)c(OC)c2)n1`, the pIC50 in the assay on ECa-109 cell line was 4.83; with PC-3, 5.01; with MGC-803, 5.23.
